This is an account of results in ChEMBL document CHEMBL3046641, “QSAR study of some CCR5 antagonists as anti-HIV agents using radial basis function neural network and general regression neural network on the basis of principal components” (Med Chem Res, 2012).

The assay deals with C-C chemokine receptor type 5 (Homo sapiens, UniProt P51681). As to the kind of experiment: Antagonist activity at Homo sapiens (human) CCR5 receptor.
C-C chemokine receptor type 5, sequence (P51681 whole entry): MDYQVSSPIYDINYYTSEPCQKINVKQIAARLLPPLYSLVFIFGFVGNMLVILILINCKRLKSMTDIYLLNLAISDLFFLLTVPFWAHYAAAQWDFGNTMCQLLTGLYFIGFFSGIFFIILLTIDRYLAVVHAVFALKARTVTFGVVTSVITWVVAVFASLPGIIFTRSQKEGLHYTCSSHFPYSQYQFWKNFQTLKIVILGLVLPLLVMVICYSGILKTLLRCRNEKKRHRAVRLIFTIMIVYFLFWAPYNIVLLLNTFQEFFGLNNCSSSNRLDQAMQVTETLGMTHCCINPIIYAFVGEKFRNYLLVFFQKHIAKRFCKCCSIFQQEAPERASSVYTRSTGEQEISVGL
On to `CN(C[C@@H](CCN1CCC2(CC1)C[S+]([O-])c1ccccc12)c1ccc(Cl)c(Cl)c1)S(=O)(=O)c1cncc2ccccc12` (stereo partly specified), for which it took 1000 nM to reach half-maximal inhibition (IC50).

On to `CN(C[C@@H](CCN1CCC2(CC1)C[S+]([O-])c1ccccc12)c1ccc(Cl)c(Cl)c1)S(=O)(=O)c1cn(C)cn1` (stereo partly specified), for which the IC50 is 1000 nM.

Molecule `CN(C[C@@H](CCN1CCC2(CC1)CNC(=O)c1ccccc12)c1ccc(Cl)c(Cl)c1)S(=O)(=O)c1cccc([N+](=O)[O-])c1` had an IC50 of 600 nM.

In turn, `CN(C[C@@H](CCN1CCC2(CC1)CC(=O)Nc1ccccc12)c1ccc(Cl)c(Cl)c1)S(=O)(=O)c1cccc([N+](=O)[O-])c1` gave an IC50 of 7000 nM.

`CN(C[C@@H](CCN1CCC2(CC1)C[S+]([O-])c1ccccc12)c1ccc(Cl)c(Cl)c1)S(=O)(=O)c1ccc2c(c1)CCC2` (stereo partly specified) gave an IC50 of 5900 nM.

Molecule `CN(C[C@@H](CCN1CCC2(CC1)NC(=O)c1ccccc12)c1cccc(Cl)c1)S(=O)(=O)c1ccccc1` showed an IC50 of 300 nM.

Regarding `CN(C[C@@H](CCN1CCC(CCCc2ccccc2)CC1)c1cccc(Cl)c1)S(=O)(=O)c1ccccc1`, the IC50 was 50 nM.

Regarding `CN(C[C@@H](CCN1CCC(c2ccccc2)CC1)c1cccc(Cl)c1)S(=O)(=O)c1ccccc1`, the IC50 was 10000 nM.

In turn, `CN(C[C@@H](CCN1CCC2(CC1)CNc1ccccc12)c1cccc(Cl)c1)S(=O)(=O)c1ccccc1` gave an IC50 of 1200 nM.

In turn, `CN(C[C@@H](CCN1CCC2(CC1)CS(=O)(=O)c1ccccc12)c1ccc(Cl)c(Cl)c1)S(=O)(=O)c1ccc([N+](=O)[O-])cc1` showed an IC50 of 700 nM.

`CN(C[C@@H](CCN1CCC2(CC1)CS(=O)(=O)c1ccccc12)c1ccc(Cl)c(Cl)c1)S(=O)(=O)c1cccc([N+](=O)[O-])c1` had an IC50 of 800 nM.

Turning to `CN(C[C@@H](CCN1CCC2(CC1)C[S+]([O-])c1ccccc12)c1ccc(Cl)c(Cl)c1)S(=O)(=O)c1cccc2cccnc12` (stereo partly specified), the IC50 was 14000 nM.

In the case of `CN(C[C@@H](CCN1CCC2(CC1)C[S+]([O-])c1ccccc12)c1ccc(Cl)c(Cl)c1)S(=O)(=O)c1ccc2ccccc2c1` (stereo partly specified), the IC50 is 3400 nM.

Molecule `CN(C[C@@H](CCN1CCC2(CC1)C[S+]([O-])c1ccccc12)c1ccc(Cl)c(Cl)c1)S(=O)(=O)c1cccc2ccccc12` (stereo partly specified) gave an IC50 of 2600 nM.

As for `CN(C[C@@H](CCN1CCC2(CC1)C[S+]([O-])c1ccccc12)c1ccc(Cl)c(Cl)c1)S(=O)(=O)c1ccc(-c2ccccc2)cc1` (stereo partly specified), the IC50 was 1000 nM.

For `CN(C[C@@H](CCN1CCC2(CC1)CSc1ccccc12)c1ccc(Cl)c(Cl)c1)S(=O)(=O)c1ccccc1`, the midpoint of inhibition, the IC50, lay at 400 nM.

With `CN(C[C@@H](CCN1CCC2(CC1)CS(=O)(=O)c1ccccc12)c1ccc(Cl)c(Cl)c1)S(=O)(=O)c1ccccc1`, the IC50 is 400 nM.

In turn, `COc1ccccc1C1CCN(CC[C@H](CN(C)S(=O)(=O)c2ccccc2)c2cccc(Cl)c2)CC1` had an IC50 of 1000 nM.

`Cc1ccccc1N1CCN(CC[C@H](CN(C)S(=O)(=O)c2ccccc2)c2cccc(Cl)c2)CC1`: the IC50 was 350 nM.

The molecule `CN(C[C@@H](CCN1CCC2(CC1)CC(O)c1ccccc12)c1cccc(Cl)c1)S(=O)(=O)c1ccccc1` (stereo partly specified) showed an IC50 of 24000 nM.

Regarding `CN(C[C@@H](CCN1CCC2(CC1)CSc1ccccc12)c1cccc(Cl)c1)S(=O)(=O)c1ccccc1`, the IC50 was 600 nM.

Take `CN(C[C@@H](CCN1CCC(Cc2ccccc2)CC1)c1cccc(Cl)c1)S(=O)(=O)c1ccccc1`: inhibition was half-maximal at 650 nM (IC50).

Take `CN(C[C@@H](CCN1CCC(c2cccc(C(F)(F)F)c2)CC1)c1cccc(Cl)c1)S(=O)(=O)c1ccccc1`: the IC50 was 2000 nM.

Consider `CN(C[C@@H](CCN1CCC2(CC1)CC(=O)c1ccccc12)c1cccc(Cl)c1)S(=O)(=O)c1ccccc1`, for which half-maximal inhibition (IC50) was put at 3400 nM.

With `CN(C[C@@H](CCN1CCC2(CC1)CS(=O)(=O)c1ccccc12)c1cccc(Cl)c1)S(=O)(=O)c1ccccc1`, the IC50 is 1000 nM.

For the molecule `CN(C[C@@H](CCN1CCC2(CC1)C[S+]([O-])c1ccccc12)c1cccc(Cl)c1)S(=O)(=O)c1ccccc1` (stereo partly specified), the IC50 is 700 nM.

`CN1C(=O)c2ccccc2C12CCN(CC[C@H](CN(C)S(=O)(=O)c1ccccc1)c1cccc(Cl)c1)CC2` had an IC50 of 1500 nM.

`CN(C[C@@H](CCN1CCC2(CC1)Cc1ccccc1O2)c1cccc(Cl)c1)S(=O)(=O)c1ccccc1` gave an IC50 of 4000 nM.

`CN(C[C@@H](CCN1CCC(CCc2ccccc2)CC1)c1cccc(Cl)c1)S(=O)(=O)c1ccccc1` had an IC50 of 600 nM.

`CN(C[C@@H](CCN1CCC(c2ccc(F)cc2)CC1)c1cccc(Cl)c1)S(=O)(=O)c1ccccc1`: the IC50 is 2500 nM.

`CN(C[C@@H](CCN1CCC(c2ccc(Cl)cc2)CC1)c1cccc(Cl)c1)S(=O)(=O)c1ccccc1` had an IC50 of 250 nM.

`Cc1ccccc1C1CCN(CC[C@H](CN(C)S(=O)(=O)c2ccccc2)c2cccc(Cl)c2)CC1` gave an IC50 of 1200 nM.

The molecule `CN(C[C@@H](CCN1CCC2(CCc3ccccc32)CC1)c1cccc(Cl)c1)S(=O)(=O)c1ccccc1` showed an IC50 of 899 nM.

Take `COc1ccc(S(=O)(=O)N(C)C[C@@H](CCN2CCC3(CC2)C[S+]([O-])c2ccccc23)c2ccc(Cl)c(Cl)c2)cc1` (stereo partly specified): 350 nM corresponded to half-maximal inhibition (IC50).

With `CN(C[C@@H](CCN1CCC2(CC1)C[S+]([O-])c1ccccc12)c1ccc(Cl)c(Cl)c1)S(=O)(=O)C1CCCC1` (stereo partly specified), half-maximal inhibition (IC50) required 500 nM.

Consider `CN(C[C@@H](CCN1CCC2(CC1)C[S+]([O-])c1ccccc12)c1ccc(Cl)c(Cl)c1)S(=O)(=O)Cc1ccccc1` (stereo partly specified), for which half-maximal inhibition (IC50) was put at 100 nM.

In turn, `CN(C[C@@H](CCN1CCC2(CC1)C[S+]([O-])c1ccccc12)c1ccc(Cl)c(Cl)c1)S(=O)(=O)c1ccccc1Cl` (stereo partly specified) showed an IC50 of 450 nM.

In turn, `CN(C[C@@H](CCN1CCC2(CC1)C[S+]([O-])c1ccccc12)c1ccc(Cl)c(Cl)c1)S(=O)(=O)c1cccc(Cl)c1` (stereo partly specified) gave an IC50 of 1000 nM.

Consider `CN(C[C@@H](CCN1CCC2(CC1)C[S+]([O-])c1ccccc12)c1ccc(Cl)c(Cl)c1)S(=O)(=O)C1CCCCC1` (stereo partly specified), for which the IC50 is 50 nM.

Consider `CN(C[C@@H](CCN1CCC2(CC1)CS(=O)(=O)c1ccccc12)c1ccc(Cl)c(Cl)c1)S(=O)(=O)c1cccs1`, for which the IC50 is 1200 nM.

Molecule `CN(C[C@@H](CCN1CCC2(CC1)C[S+]([O-])c1ccccc12)c1ccc(Cl)c(Cl)c1)S(=O)(=O)c1cccnc1` (stereo partly specified) showed an IC50 of 8490 nM.

The molecule `CN(C[C@@H](CCN1CCC2(CC1)C[S+]([O-])c1ccccc12)c1ccc(Cl)c(Cl)c1)S(C)(=O)=O` (stereo partly specified) gave an IC50 of 150 nM.

Molecule `CN(C[C@@H](CCN1CCC2(CC1)C[S+]([O-])c1ccccc12)c1ccc(Cl)c(Cl)c1)S(=O)(=O)c1cccs1` (stereo partly specified) had an IC50 of 3600 nM.

The molecule `CN(C)S(=O)(=O)N(C)C[C@@H](CCN1CCC2(CC1)C[S+]([O-])c1ccccc12)c1ccc(Cl)c(Cl)c1` (stereo partly specified) gave an IC50 of 2700 nM.

`CN(C[C@@H](CCN1CCC2(CC1)C[S+]([O-])c1ccccc12)c1ccc(Cl)c(Cl)c1)S(=O)(=O)c1ccc(Cl)cc1` (stereo partly specified) showed a half-maximal inhibitory concentration (IC50) of 350 nM.

Consider `CCCCCCCCS(=O)(=O)N(C)C[C@@H](CCN1CCC2(CC1)C[S+]([O-])c1ccccc12)c1ccc(Cl)c(Cl)c1` (stereo partly specified), for which the IC50 is 1800 nM.
